Test results as given in PMC5054363 (Scientific Reports, 2016).
*1 amine or outer side, *2 acyl side, *3 side chain or, on linkers, in order; H or OH if unused. Where a SMILES comes first, the peptide text is derived from it. Bridges are numbered along the chain shown (N, C = ends). [ ]: non-standard residue; d: D form. The star is where a group is joined. X1 = CC[C@H](C)[C@@H](N[*:1])[C@@H](O)CC(=O)O[C@H](C(=O)[C@H](C)C(=O)[*:2])C(C)C; NMeY = CN[C@@H](Cc1ccc(O)cc1)C(=O)O; dNMeL = CN[C@H](CC(C)C)C(=O)O; Pyruvoyl = CC(=O)C(=O)*

Columns and labels:
[1] = tested on: subcellular and chromatographic fractions of K-562 cell lysate; test: Binding of [14C]-plitidepsin to K-562 lysate fractions; details: 500 nM [14C]-plitidepsin with or without 10 μM unlabeled plitidepsin, 1 h, room temperature, subcellular fractions
Experimental: Figure 4 Identification of the plitidepsin-binding protein in a K-562 cells lysate. […] In the horizontal axis “P” and “S” mean “pellet” and “supernatant”, respectively, with the figure aside denoting the relative centrifugal force (in thousands of g) used to obtain such fraction. Data (in dpm per mg of protein) represent the mean of three independent samples with error bars showing S.D. * means p < 0.05. (C) Anion-exchange chromatography on DEAE, flow rate 5 mL/min. (D) Cation-exchange chromatography on SP, flow rate 2.5 mL/min. (E) Size exclusion chromatography on Superdex 200, flow rate 4 mL/min. Representative fractions (4-mL) from each portion of the eluates were analyzed for their binding to [^14C]-plitidepsin in the presence (grey bars, non-specific binding) or absence (black bars, total binding) of a 20-fold excess of unlabeled drug. Only fractions showing significant specific binding to the radioligand were pooled and progressed to the next chromatographic step. In all cases absorbance is expressed in mAU and conductivity in mS/cm.
The rest of the peptides detected in this material corresponded to fragments whose sequences are common to both isoforms, thus discarding the presence of any other protein.
After 1 h incubation at room temperature 400 μL of each tube were withdrawn and processed as described above.

[2] = target: eEF1A1 purified from rabbit liver (Oryctolagus cuniculus, UniProt P68105); details: saturation binding, [14C]-plitidepsin, 1 h, room temperature, triplicate, Swillens fit (Supplementary Figure 4)
Experimental: All samples in binding assays were tested in triplicate. […] After 1 h incubation at room temperature, 450 μL were withdrawn, filtered through GF/C filters (Millipore, Bedford, CA) and washed three times with the same buffer used for the incubation. Filters were then removed, dried and their radioactivity was finally counted as a measurement of total (specific and non-specific) bound drug. […] Scintillation counting was transformed into concentration values considering the specific activity of the radioligand and the sample volume. The concentration of bound radioligand was related to the total amount of radioligand in the sample using the expression derived by Swillens[12] to account for ligand depletion when the concentration of protein was similar to that of radioligand:
was purified from rabbit liver as described in ( 48) . Protein and radioligand wer e
incubated for 1 h at room temperature and samples were processed as described in the

both eEF1A isoforms = details: cited from earlier work
Text: (§1) Until now, very few chemical entities have been identified as modulators of eEF1A2. […] Other authors also reported the discovery of several flavonoids as well as phenanthridones (e.g ...

[3] = target: EF1A isolated from rabbit reticulocytes; details: cited from earlier work
Text: as §1

eEF1A-ribosome complex = details: binding to the eEF1A-ribosome complex; cited from earlier work
Text: as §1

protein synthesis = details: cited from earlier work

Chain of eEF1A1 purified from rabbit liver (P68105 whole entry, canonical isoform): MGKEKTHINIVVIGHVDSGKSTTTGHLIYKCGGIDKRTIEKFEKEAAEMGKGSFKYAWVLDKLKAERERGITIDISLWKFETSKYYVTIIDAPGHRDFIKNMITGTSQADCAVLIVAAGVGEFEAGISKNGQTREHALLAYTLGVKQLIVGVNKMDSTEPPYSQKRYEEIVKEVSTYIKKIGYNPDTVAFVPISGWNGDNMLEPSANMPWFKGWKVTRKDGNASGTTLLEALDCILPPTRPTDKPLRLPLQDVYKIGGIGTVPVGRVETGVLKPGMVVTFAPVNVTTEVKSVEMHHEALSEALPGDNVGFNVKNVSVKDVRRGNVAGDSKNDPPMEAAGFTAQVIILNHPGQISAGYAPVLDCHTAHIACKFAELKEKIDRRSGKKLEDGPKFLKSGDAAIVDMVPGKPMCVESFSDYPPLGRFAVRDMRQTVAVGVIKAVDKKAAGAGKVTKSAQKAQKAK

In the case of `CC[C@H](C)[C@H]1NC(=O)[C@@H](NC(=O)[C@@H](CC(C)C)N(C)C(=O)[C@@H]2CCCN2C(=O)C(C)=O)[C@@H](C)OC(=O)[C@H](Cc2ccc(OC)cc2)N(C)C(=O)[C@@H]2CCCN2C(=O)[C@H](CC(C)C)NC(=O)[C@@H](C)C(=O)[C@H](C(C)C)OC(=O)C[C@@H]1O` [[^14C]-plitidepsin] (Pyruvoyl-P[dNMeL]T[X1]LP[NMeY](Me); ester 3-C (inferred)), the binding to pellets ([1]; pellets) is reported as “non-specifically”, the “binding to soluble fractions” value ([1]; soluble) is reported as “retained by the soluble fractions” and the Kd [2] is reported as 0.183 ± 0.032 µM.
For `O=C1N[C@@H]2C(=C[C@H](O)[C@@H](O)[C@H]2O)c2cc3c(c(O)c21)OCO3` [narciclasine], the “binding to eEF1A isoforms” value (both eEF1A isoforms) is listed as “selectively bind to both eEF1A isoforms”.
For `O=C1N[C@H]2[C@H](O)[C@H](O)[C@@H](O)[C@H](O)[C@@H]2c2cc3c(c(O)c21)OCO3` [pancratistatine], the “binding to eEF1A isoforms” value (both eEF1A isoforms) is listed as “selectively bind to both eEF1A isoforms”.
For didemnin B, the Kd ([3]; binding to EF1A) is given as 200 µM, the “interaction with eEF1A” value ([3]; isoform not specified) is given as “interact with eEF1A” and the Kd (eEF1A-ribosome complex) is given as 4 µM. For the same compound, the protein synthesis inhibition (protein synthesis) was “only at μM concentrations”.
